Experimental data: US10265322B2, “Use of PAR-1 antagonists for preventing and/or treating pelvi-perineal functional pathological conditions” (PIERRE FABRE MEDICAMENT, priority 2013, dated 2019)
Where a name gives a salt, the structure may show the parent alone.

How the values were obtained:
PAR [1] = test: trypsin-induced contraction of rat-isolated bladder strips, naive animals; details: for amplitude of bladder contraction: trypsin 3000 BAEE U/mL; for effect on trypsin-induced bladder contraction at the other concentrations: other concentrations tested; for reduction in bladder contraction: trypsin
From the text: (§1) Purpose of the experiment: Evaluate the role of 3-(2-Chloro-phenyl)-1-[4-(4-fluoro-benzyl)-piperazin-1-yl]-propenone on the amplitude of bladder contraction induced by trypsin and TFLLR. The experiment was led in parallel on naïve bladders and on bladders subjected to inflammation procedure. The effect of the compound of the invention was compared with that of a reference PAR1 antagonist: compound SCH203099, (Ahn et al. Biochem. Pharmacol. 60(10:1425-1434, 2000).
(§2) In naïve rats (no administration of cyclophosphamide) or 24 hours after administration of cyclophosphamide, the animals were anaesthetised with pentobarbital (60 mg/kg) and euthanized. The bladder was rapidly taken and placed in modified Krebs-Henseleit oxygenated solution having the following composition (mM): NaCl 114; KCl 4.7; CaCl2 2.5; MgSO4 1.2; KH2PO4 1.2; NaHCO3 25 and glucose 11.7 (pH 7.4 with 95% O2 and 5% CO2). The bladder was cleaned of conjunctive tissue, weighed, the distal and proximal portions removed and the bladder cut in longitudinal direction into two equal strips. These strips were attached with silk thread and immersed in a 10 mL isolated organ bath (EMKA Technologies) containing the Krebs-Henseleit oxygenated solution with 95%:5% mixture of O2/CO2 held at 37° C. The bladder strips were connected via the silk thread to isometric sensors (IT50 model, EMKA Technologies) connected to amplifiers (EMKA Technologies). Contractile responses were recorded using IOX2® software (EMKA Technologies).
(§3) For an initial stabilisation period of at least 90 minutes, rinsing operations were carried out every 15 minutes and the tensioning of each bladder strip readjusted to 1.0 g. The strips were then exposed to 50 mM KCl to verify their viability. If the contraction amplitude of the strips was less than 1.0 g, the tissues were discarded and not included in the experiment. After a second stabilisation and washing period of at least 45 minutes, a concentration of the compound of the invention or of the reference product (SCH203099) or of the vehicle was incubated for 30 minutes. A concentration-accumulative response curve to the selective agonist PAR1, to TFLLR (0.1 μM to 0.1 mM) or to trypsin (10 U to 10,000 BAEE U/mL) was plotted.
(§4) These experiments were conducted on naive bladders. The protocol followed was the same as the protocol described in Example 1.

PAR1 [2] = biological target: T1, PAR1 (Rattus norvegicus, UniProt P26824); test: TFLLR-induced contraction of rat-isolated bladder strips, naive animals
T1 construct: the bladder cut in longitudinal direction into two equal strips; from tissue; host or cells: isolated bladder strips of female Wistar Han rats (naive or 24 h after cyclophosphamide)
T1 sequence (P26824 22-432): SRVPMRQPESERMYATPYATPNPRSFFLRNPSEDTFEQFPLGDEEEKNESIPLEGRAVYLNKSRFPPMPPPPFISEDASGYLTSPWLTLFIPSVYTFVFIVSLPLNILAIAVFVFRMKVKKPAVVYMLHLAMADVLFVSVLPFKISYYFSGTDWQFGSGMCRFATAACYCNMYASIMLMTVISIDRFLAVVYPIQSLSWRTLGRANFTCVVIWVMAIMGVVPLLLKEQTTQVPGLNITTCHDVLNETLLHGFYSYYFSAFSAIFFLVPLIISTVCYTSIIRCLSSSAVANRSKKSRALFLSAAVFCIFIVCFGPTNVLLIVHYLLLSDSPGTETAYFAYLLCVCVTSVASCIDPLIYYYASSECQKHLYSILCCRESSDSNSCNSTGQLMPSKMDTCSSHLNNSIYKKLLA
From the text: as §1, §2, §3, §4

[3] = solubility of the compound in the organ bath experiment; assay type: physicochemical; details: noted at 10 μM and 30 μM in organ bath
PAR [4] = test: trypsin-induced contraction of rat-isolated bladder strips, inflammation conditions (cyclophosphamide); details: for amplitude of bladder contraction / reduction in bladder contraction: inflamed rat bladder; for amplitude of bladder contraction: trypsin 3000 BAEE U/mL; for reduction in bladder contraction: trypsin
From the text: as §1
(§5) To induce inflammation of the bladder, cyclophosphamide was bilaterally injected into the rats (Female Wistar Han rats weighing 250 to 275 g on the day of the experiment, obtained from Charles River laboratory, France) via intraperitoneal route at a dose of 150 mg/kg in a final volume of 5 mL/kg.
as §2, §3

PAR1 [5] = biological target: T1, PAR1; test: TFLLR-induced contraction of rat-isolated bladder strips, inflammation conditions (cyclophosphamide); details: inflamed rat bladder, 100 μM TFLLR
From the text: as §1, §5, §2, §3

Structure (SMILES)	effect on trypsin-induced bladder contraction versus vehicle (PAR [1]; compound 10 μM)	amplitude of bladder contraction (PAR [1]; compound 3 μM) [g]	amplitude of bladder contraction (PAR1 [2]; 100 μM TFLLR, compound 10 nM) [g]	reduction in bladder contraction (PAR1 [2]; 100 μM TFLLR, compound 10 nM)	amplitude of bladder contraction (PAR1 [2]; 100 μM TFLLR, compound 1 μM) [g]	amplitude of bladder contraction (PAR [4]; compound 10 μM) [g]	amplitude of bladder contraction (PAR [4]; compound 30 μM) [g]	reduction in bladder contraction (PAR [4]; compound 10 μM) [%]	reduction in bladder contraction (PAR [4]; compound 30 μM)	amplitude of bladder contraction (PAR1 [5]; compound 10 μM) [g]	reduction in bladder contraction (PAR1 [5]; compound 10 μM) [%]	amplitude of bladder contraction (PAR1 [5]; compound 30 μM) [g]	reduction in bladder contraction / contractile response (PAR1 [5]; compound 30 μM) [%]	effect on trypsin-induced bladder contraction at the other concentrations (PAR [1])	amplitude of bladder contraction (PAR [1]; compound 10 μM) [g]	amplitude of bladder contraction (PAR1 [2]; 100 μM TFLLR, compound 10 μM) [g]	effect on trypsin-induced bladder contraction versus vehicle (PAR [1]; compound 30 μM)	further results
CCOC(=O)N[C@@H]1CC[C@@H]2[C@@H](C1)C[C@H]1C(=O)O[C@H](C)[C@H]1[C@H]2/C=C/c1ccc(-c2cccc(F)c2)cn1 [vorapaxar, ethyl N-[(3R,3aS,4S,4aR,7R,8aR,9aR)-4-[(E)-2-[5-(3-fluorophenyl)-2-pyridyl]vinyl]-3-methyl-1-oxo-3a,4,4a,5,6,7,8,8a,9,9a-decahydro-3H-benzo[f]isobenzofuran-7-yl]carbamate]	lesser efficacy	0.79 ± 0.14	0.14 ± 0.02	75%	0.04 ± 0.03	–	–	–	–	–	–	–	–	–	–	–	–	amplitude of bladder contraction (PAR1 [2]; 100 μM TFLLR, compound 3 nM): 0.31 ± 0.12 g; reduction in bladder contraction (PAR1 [2]; 100 μM TFLLR, compound 3 nM): ~50%; effect on TFLLR-induced bladder contraction (PAR1 [2]; compound from 1 μM): completely abolishes; solubility [3]: low solubility
CNc1nc(NC2CC2)nc2ccc3c(ccn3Cc3ccc(C(C)C)cc3)c12 [SCH203099]	divided by two	–	–	–	–	1.77 ± 0.38	1.04 ± 0.16	35	60%	0.73 ± 0.10	35	0.49 ± 0.08	55	nothing was observed	0.48 ± 0.11	0.26 ± 0.07	–	amplitude of bladder contraction (PAR [4]; compound 3 μM): 2.05 ± 0.53 g; reduction in bladder contraction (PAR [4]; compound 3 μM): 25%; reduction in bladder contraction (PAR1 [5]; compound 3 μM (no conclusive effect)): 10%; effect on TFLLR-induced bladder contraction versus vehicle (PAR1 [2]; compound 10 μM): divided by two; effect on TFLLR-induced bladder contraction at the other concentrations (PAR1 [2]; other concentrations tested): nothing was observed
O=C(/C=C/c1ccccc1Cl)N1CCN(Cc2ccc(F)cc2)CC1 [compound of the invention, 3-(2-Chloro-phenyl)-1-[4-(4-fluoro-benzyl)-piperazin-1-yl]-propenone]	–	–	–	–	–	1.76 ± 0.30	0.92 ± 0.17	35	about 70%	0.45 ± 0.13	60	0.11 ± 0.04	90	nothing was observed	–	0.18 ± 0.04	divided by two	effect on trypsin-induced bladder contraction (PAR [4]; inflamed rat bladder (cyclophosphamide), compound up to 3 μM): inactive; reduction in bladder contraction (PAR1 [5]; compound up to 3 μM (no conclusive effect)): 10%; amplitude of bladder contraction (PAR [1]; compound 30 μM): 0.55 ± 0.24 g; amplitude of bladder contraction (PAR1 [2]; 100 μM TFLLR, compound 3 μM): 0.33 ± 0.05 g; reduction in bladder contraction (PAR1 [2]; 100 μM TFLLR, compound 3 μM): 45%; reduction in bladder contraction (PAR1 [2]; 100 μM TFLLR, compound 10 μM): 70%; amplitude of bladder contraction (PAR1 [2]; 100 μM TFLLR, compound 30 μM): 0.00 ± 0.04 g; effect on TFLLR-induced bladder contraction (PAR1 [2]; compound 1 μM): inactive; effect on TFLLR-induced bladder contraction (PAR1 [2]; compound 30 μM): completely abolished
CCOc1cc2c(c(F)c1OCC)C(=N)N(CC(=O)c1cc(N3CCOCC3)c(OC)c(C(C)(C)C)c1)C2 [atopaxar, [(1-(3-tert-butyl-4-methoxy-5-morpholinophenyl)-2-(5,6-diethoxy-fluoro-1-imino-1,3-dihydro-2H-isoindol-2yl)ethanone hydrobromide]	–	0.74 ± 0.19	0.21 ± 0.03	more than 50%	0.08 ± 0.03	–	–	–	–	–	–	–	–	–	0.36 ± 0.15	–	completely abolishes	effect on trypsin-induced bladder contraction versus vehicle (PAR [1]; compound 1 μM): slight reduction; amplitude of bladder contraction (PAR [1]; compound 1 μM): 1.02 ± 0.20 g; reduction in bladder contraction (PAR [1]; compound 3 μM): 38%; reduction in bladder contraction (PAR [1]; compound 10 μM): 70%; decrease of bladder contraction (PAR1 [2]; 100 μM TFLLR, compound 1 μM): more than 80%
